# Measured values: paper PMC10945555, “Improving Activity of New Arylurea Agents against Multidrug-Resistant and Biofilm-Producing Staphylococcus epidermidis” (ACS Medicinal Chemistry Letters, 2024)
# Columns and labels:
# Type in all cases: cell-based
# [1] = test system: Staphylococcus epidermidis no. 44; experiment: Real-time bacterial growth analysis; conditions: real-time growth analysis and MBC/MIC ratio
# Protocol: (reduction of navy blue resazurin to pink resorufin in the presence of metabolically active cells) compared to the negative (sterile medium without bacteria and compounds) and positive control (medium with bacteria).9 The minimal biofilm eradication concentration value was analyzed using a high throughput screening the MBEC Assay® Kit (Innovotech, Canada), formerly the Calgary Biofilm Device, according to the manufacturer's insert.10
# 2.4.1 Determination of biofilm viability by confocal laser scanning microscope (CLSM) […]
# by the selected strains was observed using the confocal laser scanning microscopy technique (CLSM, model Inverted Microscope for Industry Leica DMi8, Wetzlar, Germany). Biofilms were grown on Millicell® EZ SLIDE slides (Merck, Germany)11 and incubated with FilmTracer™ SYPRO™ Ruby Biofilm Matrix Stain (ThermoFisher Scientific, USA).12 2.5 Evaluation of bacteriostatic/bactericidal properties […]
# determining MBC (Minimal Bactericidal Concentration) values. The study was conducted in accordance with the guidelines of the Clinical and Laboratory Standards Institute (CLSI).13 The MBC value was assumed to be the concentration of the compound inhibiting the growth of strains in 99.9%. Then, the value of the MBC/MIC ratio was calculated to assess its bactericidal or bacteriostatic activity. […]
# compound 25 and linezolid expressed as changes in OD600 over time. […]
# [2] = test system: biofilm-producing Staphylococcus epidermidis strains; experiment: Biofilm eradication (MBEC Assay Kit); conditions: for MBEC50 / MBEC90: Table S4 strains
# [3] = test system: Pseudomonas aeruginosa ATCC 27853; experiment: MIC, Gram-negative reference strain; conditions: for MIC: Pseudomonas aeruginosa, ATCC27853, read-out: MIC P. aeruginosa
# Protocol: (§1) 2 Biological assay protocols
# (§2) Microbiological tests were carried out under aseptic conditions in a laminar chamber of the 2nd […]
# (§3) (BioTectum 1.2, Alchem Poland). The assessment of antimicrobial activity was carried out for final compounds in the form of free bases, soluble in DMSO (Merck, Germany), at the initial […]
# (§4) concentration of 1 mg/mL. […]
# (§5) were provided by Cayman Chemical, USA.
# (§6) The activity of all newly synthesized compounds was tested in vitro on a panel of selected reference strains from the American Type Culture Collection (ATCC) of Gram-positive […]
# (§7) 2.2 Effect of evaluated compounds on planktonic cells
# (§8) The susceptibility of three reference bacterial strains (Staphylococcus epidermidis ATCC […]
# (§9) Table S1) and 81 clinical MDR S. epidermidis (Table S2) to the tested compounds was assessed by determining the MIC value (Minimal Inhibitory Concentration) by microdilution in a liquid medium in 96-well flat-bottom cell culture plates (Nest Biotechnology Scientific, USA). The antibacterial properties of the compo unds were tested in the concentration range from 50 µg/mL to 0.1 µg/mL by making a series of double dilutions of the compound in liquid Mueller -Hinton II Broth Cation Adjusted (MHB II, BBL TM, USA) according to the European Committee on […]
# (§10) Antimicrobial Susceptibility Testing guidelines (EUCAST).2,3 The determinations were performed twice. The MIC50 and MIC90 values were determined for each of the tested
# [4] = test system: Acinetobacter baumannii ATCC 19606; experiment: MIC, Gram-negative reference strain; conditions: for MIC: Acinetobacter baumannii, ATCC19606
# Protocol: as §1, §2, §3, §4, §5, §6, §7, §8, §9, §10
# [5] = test system: Escherichia coli ATCC 25922; experiment: MIC, Gram-negative reference strain; conditions: for MIC: Escherichia coli, ATCC25922
# Protocol: as §1, §2, §3, §4, §5, §6, §7, §8, §9, §10
# [6] = S. epidermidis ATCC 35984 (Table S4)
smiles,measurement,setting,value
O=C(Nc1cccc(Cl)c1)NC1CCN(CCC(Oc2ccc(C(F)(F)F)cc2)c2cccs2)CC1 (stereo not drawn) [Compound 25],bacteriostatic/bactericidal properties,[1],bacteriostatic properties
same,MBEC,[2]; [6],7.8 µg/mL
same,MBEC50,[2],31.25 µg/mL
same,MBEC90,[2],31.25 µg/mL
same,MBEC,[2]; clinical strain 1 (Table S4),31.25 µg/mL
same,MBEC,[2]; clinical strain 2 (Table S4),31.25 µg/mL
same,MBEC,[2]; clinical strain 3 (Table S4),31.25 µg/mL
same,MBEC,[2]; clinical strain 4 (Table S4),31.25 µg/mL
same,MBEC,[2]; clinical strain 6 (Table S4),15.6 µg/mL
same,MBEC,[2]; clinical strain 7 (Table S4),31.25 µg/mL
same,MBEC,[2]; clinical strain 8 (Table S4),7.8 µg/mL
same,MBEC,[2]; clinical strain 9 (Table S4),31.25 µg/mL
same,MBEC,[2]; clinical strain 11 (Table S4),31.25 µg/mL
same,MBEC,[2]; clinical strain 12 (Table S4),31.25 µg/mL
same,MBEC,[2]; clinical strain 13 (Table S4),3.9 µg/mL
same,MBEC,[2]; clinical strain 15 (Table S4),31.25 µg/mL
same,MBEC,[2]; clinical strain 16 (Table S4),31.25 µg/mL
same,MBEC,[2]; clinical strain 17 (Table S4),15.6 µg/mL
same,MBEC,[2]; clinical strain 19 (Table S4),15.6 µg/mL
same,MBEC,[2]; clinical strain 21 (Table S4),31.25 µg/mL
same,MBEC,[2]; clinical strain 22 (Table S4),31.25 µg/mL
same,MBEC,[2]; clinical strain 23 (Table S4),7.8 µg/mL
same,MBEC,[2]; clinical strain 25 (Table S4),7.8 µg/mL
same,MBEC,[2]; clinical strain 26 (Table S4),31.25 µg/mL
same,MBEC,[2]; clinical strain 27 (Table S4),31.25 µg/mL
same,MBEC,[2]; clinical strain 28 (Table S4),31.25 µg/mL
same,MBEC,[2]; clinical strain 29 (Table S4),31.25 µg/mL
same,MBEC,[2]; clinical strain 30 (Table S4),3.9 µg/mL
same,MBEC,[2]; clinical strain 33 (Table S4),31.25 µg/mL
same,MBEC,[2]; clinical strain 35 (Table S4),31.25 µg/mL
same,MBEC,[2]; clinical strain 36 (Table S4),31.25 µg/mL
same,MBEC,[2]; clinical strain 37 (Table S4),31.25 µg/mL
same,MBEC,[2]; clinical strain 39 (Table S4),3.9 µg/mL
same,MBEC,[2]; clinical strain 40 (Table S4),31.25 µg/mL
same,MBEC,[2]; clinical strain 41 (Table S4),31.25 µg/mL
same,MBEC,[2]; clinical strain 42 (Table S4),31.25 µg/mL
same,MBEC,[2]; clinical strain 43 (Table S4),31.25 µg/mL
same,MBEC,[2]; clinical strain 44 (Table S4),15.6 µg/mL
same,MBEC,[2]; clinical strain 45 (Table S4),31.25 µg/mL
same,MBEC,[2]; clinical strain 46 (Table S4),31.25 µg/mL
same,MBEC,[2]; clinical strain 47 (Table S4),15.6 µg/mL
same,MBEC,[2]; clinical strain 49 (Table S4),15.6 µg/mL
same,MBEC,[2]; clinical strain 51 (Table S4),31.25 µg/mL
same,MBEC,[2]; clinical strain 55 (Table S4),31.25 µg/mL
same,MBEC,[2]; clinical strain 58 (Table S4),31.25 µg/mL
same,MBEC,[2]; clinical strain 59 (Table S4),31.25 µg/mL
same,MBEC,[2]; clinical strain 65 (Table S4),31.25 µg/mL
same,MBEC,[2]; clinical strain 66 (Table S4),15.6 µg/mL
same,MBEC,[2]; clinical strain 67 (Table S4),31.25 µg/mL
same,MBEC,[2]; clinical strain 70 (Table S4),31.25 µg/mL
same,MBEC,[2]; clinical strain 73 (Table S4),7.8 µg/mL
same,MBEC,[2]; clinical strain 74 (Table S4),15.6 µg/mL
same,MBEC,[2]; clinical strain 75 (Table S4),31.25 µg/mL
same,MBEC,[2]; clinical strain 78 (Table S4),7.8 µg/mL
same,MBEC,[2]; clinical strain 79 (Table S4),7.8 µg/mL
same,MIC P. aeruginosa,[3],exceeded 50 µg/mL
same,MIC,[3],50 µg/mL
same,MIC A. baumannii,[4],exceeded 50 µg/mL
same,MIC,[4],50 µg/mL
same,MIC E. coli,[5],exceeded 50 µg/mL
same,MIC,[5],50 µg/mL
"CC(=O)NC[C@H]1CN(c2ccc(N3CCOCC3)c(F)c2)C(=O)O1 [linezolid, reference compound]",bacteriostatic/bactericidal properties,[1],bacteriostatic properties
same,MBEC,[2]; [6],15.6 µg/mL
same,MBEC50,[2],50 µg/mL
same,MBEC90,[2],50 µg/mL
same,MBEC,[2]; clinical strain 1 (Table S4),31.25 µg/mL
same,MBEC,[2]; clinical strain 2 (Table S4),50 µg/mL
same,MBEC,[2]; clinical strain 3 (Table S4),50 µg/mL
same,MBEC,[2]; clinical strain 4 (Table S4),50 µg/mL
same,MBEC,[2]; clinical strain 5 (Table S4),50 µg/mL
same,MBEC,[2]; clinical strain 6 (Table S4),31.25 µg/mL
same,MBEC,[2]; clinical strain 7 (Table S4),50 µg/mL
same,MBEC,[2]; clinical strain 8 (Table S4),15.6 µg/mL
same,MBEC,[2]; clinical strain 9 (Table S4),50 µg/mL
same,MBEC,[2]; clinical strain 11 (Table S4),50 µg/mL
same,MBEC,[2]; clinical strain 12 (Table S4),50 µg/mL
same,MBEC,[2]; clinical strain 13 (Table S4),7.8 µg/mL
same,MBEC,[2]; clinical strain 15 (Table S4),50 µg/mL
same,MBEC,[2]; clinical strain 16 (Table S4),50 µg/mL
same,MBEC,[2]; clinical strain 17 (Table S4),31.25 µg/mL
same,MBEC,[2]; clinical strain 19 (Table S4),31.25 µg/mL
same,MBEC,[2]; clinical strain 21 (Table S4),50 µg/mL
same,MBEC,[2]; clinical strain 22 (Table S4),50 µg/mL
same,MBEC,[2]; clinical strain 23 (Table S4),15.6 µg/mL
same,MBEC,[2]; clinical strain 25 (Table S4),15.6 µg/mL
same,MBEC,[2]; clinical strain 26 (Table S4),50 µg/mL
same,MBEC,[2]; clinical strain 27 (Table S4),50 µg/mL
same,MBEC,[2]; clinical strain 28 (Table S4),50 µg/mL
same,MBEC,[2]; clinical strain 29 (Table S4),50 µg/mL
same,MBEC,[2]; clinical strain 30 (Table S4),7.8 µg/mL
same,MBEC,[2]; clinical strain 33 (Table S4),50 µg/mL
same,MBEC,[2]; clinical strain 35 (Table S4),50 µg/mL
same,MBEC,[2]; clinical strain 36 (Table S4),50 µg/mL
same,MBEC,[2]; clinical strain 37 (Table S4),50 µg/mL
same,MBEC,[2]; clinical strain 39 (Table S4),7.8 µg/mL
same,MBEC,[2]; clinical strain 40 (Table S4),50 µg/mL
same,MBEC,[2]; clinical strain 41 (Table S4),50 µg/mL
same,MBEC,[2]; clinical strain 42 (Table S4),50 µg/mL
same,MBEC,[2]; clinical strain 43 (Table S4),50 µg/mL
same,MBEC,[2]; clinical strain 44 (Table S4),25 µg/mL
same,MBEC,[2]; clinical strain 45 (Table S4),50 µg/mL
same,MBEC,[2]; clinical strain 46 (Table S4),50 µg/mL
same,MBEC,[2]; clinical strain 47 (Table S4),25 µg/mL
same,MBEC,[2]; clinical strain 49 (Table S4),25 µg/mL
same,MBEC,[2]; clinical strain 51 (Table S4),50 µg/mL
same,MBEC,[2]; clinical strain 55 (Table S4),50 µg/mL
same,MBEC,[2]; clinical strain 58 (Table S4),50 µg/mL
same,MBEC,[2]; clinical strain 59 (Table S4),50 µg/mL
same,MBEC,[2]; clinical strain 65 (Table S4),50 µg/mL
same,MBEC,[2]; clinical strain 66 (Table S4),25 µg/mL
same,MBEC,[2]; clinical strain 67 (Table S4),50 µg/mL
same,MBEC,[2]; clinical strain 70 (Table S4),50 µg/mL
same,MBEC,[2]; clinical strain 73 (Table S4),15.6 µg/mL
same,MBEC,[2]; clinical strain 74 (Table S4),25 µg/mL
same,MBEC,[2]; clinical strain 75 (Table S4),50 µg/mL
same,MBEC,[2]; clinical strain 78 (Table S4),15.6 µg/mL
same,MBEC,[2]; clinical strain 79 (Table S4),15.6 µg/mL
same,MIC,[3],50 µg/mL
same,MIC,[4],50 µg/mL
same,MIC,[5],50 µg/mL
